Measurements: ChEMBL document CHEMBL1129778, “Design and synthesis of bisubstrate analogues for 3-hydroxy-3-methyl-glutaryl coenzyme a reductase” (Bioorg Med Chem Lett, 1996)
Calls of active or inactive are those of the source. The calls are words filed in the database; no cut-off is given here.

Molecular target: T1, 3-hydroxy-3-methylglutaryl-coenzyme A reductase (Rattus norvegicus) (UniProt P51639)
T1 sequence (whole entry): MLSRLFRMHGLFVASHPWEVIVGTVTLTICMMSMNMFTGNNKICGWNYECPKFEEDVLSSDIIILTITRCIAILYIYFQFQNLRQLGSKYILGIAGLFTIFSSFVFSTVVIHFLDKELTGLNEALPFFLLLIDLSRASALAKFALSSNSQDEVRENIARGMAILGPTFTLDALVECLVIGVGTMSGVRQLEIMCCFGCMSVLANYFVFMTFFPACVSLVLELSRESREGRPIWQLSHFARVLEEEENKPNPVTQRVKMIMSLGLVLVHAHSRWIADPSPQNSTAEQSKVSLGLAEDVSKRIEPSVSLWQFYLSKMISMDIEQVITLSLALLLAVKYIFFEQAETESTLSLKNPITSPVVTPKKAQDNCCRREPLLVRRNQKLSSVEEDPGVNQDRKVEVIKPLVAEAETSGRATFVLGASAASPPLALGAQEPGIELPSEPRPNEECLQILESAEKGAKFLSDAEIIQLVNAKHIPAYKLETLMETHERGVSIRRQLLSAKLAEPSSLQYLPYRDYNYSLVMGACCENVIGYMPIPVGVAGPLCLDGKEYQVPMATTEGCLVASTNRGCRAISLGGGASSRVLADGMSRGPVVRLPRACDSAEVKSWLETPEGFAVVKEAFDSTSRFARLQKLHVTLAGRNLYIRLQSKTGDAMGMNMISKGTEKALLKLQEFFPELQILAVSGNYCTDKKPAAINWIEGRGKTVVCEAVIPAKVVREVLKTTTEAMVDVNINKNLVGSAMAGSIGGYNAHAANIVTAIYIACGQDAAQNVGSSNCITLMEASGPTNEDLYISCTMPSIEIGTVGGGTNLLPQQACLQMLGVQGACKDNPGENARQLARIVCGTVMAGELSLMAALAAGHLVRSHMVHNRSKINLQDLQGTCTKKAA
Assay: Biological activity against rat liver 3-hydroxy-3-methyl glutaryl coenzyme A reductase (HMGR) at a concentration of 10E-4 M; No inhibition
Format: tissue-based

SMILES	Activity
COC(=O)C[C@H](O)C[C@H](O)Cc1ccncc1C(N)=O	inactive
COC(=O)C[C@H](O)C[C@@H](O)Cc1ccncc1C(N)=O	inactive
